Results published in paper PMC6525019 (Cell chemical biology, 2019).

Columns and labels:
[1] = target: T1, RibBX (Acinetobacter baumannii, UniProt V5V8R9); assay: colorimetric DHBPS assay; type: biochemical
T1 sequence (V5V8R9 1-373): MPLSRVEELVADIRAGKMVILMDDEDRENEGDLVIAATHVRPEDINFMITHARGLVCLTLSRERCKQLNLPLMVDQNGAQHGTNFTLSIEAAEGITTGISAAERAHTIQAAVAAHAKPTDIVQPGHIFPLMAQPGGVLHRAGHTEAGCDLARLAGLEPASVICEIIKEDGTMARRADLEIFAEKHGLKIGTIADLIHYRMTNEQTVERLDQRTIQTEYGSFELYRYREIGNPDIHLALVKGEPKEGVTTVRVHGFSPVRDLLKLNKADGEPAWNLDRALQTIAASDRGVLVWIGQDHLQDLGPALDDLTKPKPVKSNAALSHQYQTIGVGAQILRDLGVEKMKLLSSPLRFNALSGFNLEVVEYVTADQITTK

[2] = target: T1, RibBX; assay: isothermal titration calorimetry; type: binding
[3] = target: A. baumannii RibBX (3,4-dihydroxy-2-butanone 4-phosphate synthase (DHBPS; RibB) fusion protein) (Acinetobacter baumannii ATCC 17978); assay: crystal structure
[4] = target: A. baumannii RibBX (3,4-dihydroxy-2-butanone 4-phosphate synthase (DHBPS; RibB) fusion protein) (Acinetobacter baumannii ATCC 17978); assay: SEC

Compound | Ki [1] [µM] | Kd [2] [µM] | stoichiometry N [3] | stoichiometry N [4]
Cc1cc2nc3c(=O)[nH]c(=O)nc-3n(C[C@H](O)[C@H](O)[C@H](O)COP(=O)(O)O)c2cc1C [FMN] | 7.8 | 0.714 | – | –
A. baumannii RibBX (3,4-dihydroxy-2-butanone 4-phosphate synthase (DHBPS; RibB) fusion protein) (enzyme) | – | – | 4 | 2
